# Patent US20190359609A1, “BICYCLIC OGA INHIBITOR COMPOUNDS” (Janssen Pharmaceutica NV, priority 2016, published 2019)
# Counter-ions that a name gives are not always drawn. Like-named read-outs stand apart in the source and are kept apart here.
# Tests used:
# [1] = target: T1, recombinant human Meningioma Expressed Antigen 5 (MGEA5), also referred to as O-GlcNAcase (OGA) (Homo sapiens, UniProt O60502); experiment: OGA biochemical assay: inhibition of FM-GlcNAc hydrolysis, fluorescence (protocol A 10 nM OGA, 1 h; protocol B 2 nM OGA, 6 h)
# T1 construct: Full length OGA enzyme was purchased at OriGene (cat # TP322411); purchased OriGene TP322411
# T1 sequence (O60502 1-916): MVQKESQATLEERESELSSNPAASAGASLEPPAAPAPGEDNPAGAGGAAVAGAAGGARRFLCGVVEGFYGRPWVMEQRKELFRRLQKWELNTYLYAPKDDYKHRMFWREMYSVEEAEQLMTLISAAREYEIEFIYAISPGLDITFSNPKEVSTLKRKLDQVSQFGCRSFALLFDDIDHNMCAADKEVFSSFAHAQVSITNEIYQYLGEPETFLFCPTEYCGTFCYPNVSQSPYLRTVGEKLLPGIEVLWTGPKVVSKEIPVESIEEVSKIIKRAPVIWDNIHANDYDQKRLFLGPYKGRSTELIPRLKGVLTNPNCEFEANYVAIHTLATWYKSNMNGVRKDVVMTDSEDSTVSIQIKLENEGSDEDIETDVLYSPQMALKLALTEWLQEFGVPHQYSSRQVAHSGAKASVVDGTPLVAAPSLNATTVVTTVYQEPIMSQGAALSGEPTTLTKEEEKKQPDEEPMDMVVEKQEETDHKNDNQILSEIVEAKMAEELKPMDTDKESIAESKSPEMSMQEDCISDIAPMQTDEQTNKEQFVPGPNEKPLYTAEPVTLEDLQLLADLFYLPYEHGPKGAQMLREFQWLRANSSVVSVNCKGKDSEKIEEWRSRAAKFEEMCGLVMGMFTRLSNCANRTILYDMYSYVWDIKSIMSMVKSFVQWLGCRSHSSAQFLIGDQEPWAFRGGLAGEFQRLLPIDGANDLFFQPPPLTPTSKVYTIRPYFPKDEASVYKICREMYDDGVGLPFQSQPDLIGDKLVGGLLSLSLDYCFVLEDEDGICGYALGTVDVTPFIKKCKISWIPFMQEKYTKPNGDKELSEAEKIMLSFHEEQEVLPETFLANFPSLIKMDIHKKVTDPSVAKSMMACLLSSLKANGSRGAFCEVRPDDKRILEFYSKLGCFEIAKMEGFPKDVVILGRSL
# Source text: The assay is based on the inhibition of the hydrolysis of fluorescein mono-B-D-N-Acetyl-Glucosamine (FM-GlcNAc) (Mariappa et al. 2015, Biochem J 470:255) by the recombinant human Meningioma Expressed Antigen 5 (MGEA5), also referred to as 0-GlcNAcase (OGA). The hydrolysis FM-GlcNAc (Marker Gene technologies, cat # M1485) results in the formation of β-D-N-glucosamineacetate and fluorescein. The fluorescence of the latter can be measured at excitation wavelength 485 nm and emission wavelength 538 nm. An increase in enzyme activity results in an increase in fluorescence signal. Full length OGA enzyme was purchased at OriGene (cat # TP322411). The enzyme was stored in 25 mM Tris.HCl, pH 7.3, 100 mM glycine, 10% glycerol at −20° C. Thiamet G and GlcNAcStatin were tested as reference compounds (Yuzwa et al. 2008 Nature Chemical Biology 4:483; Yuzwa et al. 2012 Nature Chemical Biology 8:393). The assay was performed in 200 mM Citrate/phosphate buffer supplemented with 0.005% Tween-20. 35.6 g Na2HPO4 2 H2O (Sigma, # C0759) were dissolved in 1 L water to obtain a 200 mM solution. 19.2 g citric acid (Merck, #1.06580) was dissolved in 1 L water to obtain a 100 mM solution. pH of the sodiumphosphate solution was adjusted with the citric acid solution to 7.2. The buffer to stop the reaction consists of a 500 mM Carbonate buffer, pH 11.0. 734 mg FM-GlcNAc were dissolved in 5.48 mL DMSO to obtain a 250 mM solution and was stored at −20° C. OGA was used at a 10 nM (protocol A) or 2 nM (protocol B) concentration and FM-GlcNAc at a 100 uM final concentration. Dilutions were prepared in assay buffer.
# 50 nl of a compound dissolved in DMSO was dispensed on Black Proxiplate™ 384 Plus Assay plates (Perkin Elmer, #6008269) and 3 μl fl-OGA enzyme mix added subsequently. Plates were pre-incubated for 60 min at room temperature and then 2 μl FM-GlcNAc substrate mix added. […] Plates were briefly centrifuged for 1 min at 1000 rpm and incubate at room temperature for 1 h (10 nM OGA, protocol A) or 6 h (2 nM OGA, protocol B). To stop the reaction 5 μl STOP buffer were added and plates centrifuge again 1 min at 1000 rpm. Fluorescence was quantified in the Thermo Scientific Fluoroskan Ascent or the PerkinElmer EnVision with excitation wavelength 485 nm and emission wavelength 538 nm.
# For analysis a best-fit curve is fitted by a minimum sum of squares method. From this an IC50 value and Hill coefficient was obtained. High control (no inhibitor) and low control (saturating concentrations of standard inhibitor) were used to define the minimum and maximum values.
# OGA = target: T2, OGA (Homo sapiens, UniProt O60502); experiment: OGA cellular assay: ICC detection of O-GlcNAcylated proteins in HEK293 cells inducible for P301L mutant human Tau; assay type: cell-based; conditions: 6 hours incubation; for EC50: read-out: Cellular hOGA, pEC50 (converted)
# T2 construct: endogenous in cells; host or cells: HEK293 cells inducible for P301L mutant human Tau (2N4R)
# T2 sequence (O60502 1-916): T1 sequence (O60502 1-916)
# Experimental: HEK293 cells inducible for P301L mutant human Tau (isoform 2N4R) were established at Janssen. Thiamet-G was used for both plate validation (high control) and as reference compound (reference EC50 assay validation). OGA inhibition is evaluated through the immunocytochemical (ICC) detection of O-GlcNAcylated proteins by the use of a monoclonal antibody (CTD110.6; Cell Signaling, #9875) detecting O-GlcNAcylated residues as previously described (Dorfmueller et al. 2010 Chemistry & biology, 17:1250).
# Inhibition of OGA will result in an increase of 0-GlcNAcylated protein levels resulting in an increased signal in the experiment. Cell nuclei are stained with Hoechst to give a cell culture quality control and a rough estimate of immediate compounds toxicity, if any. ICC pictures are imaged with a Perkin Elmer Opera Phenix plate microscope and quantified with the provided software Perkin Elmer Harmony 4.1.
# Cells were propagated in DMEM high Glucose (Sigma, #D5796) following standard procedures. 2 days before the cell assay cells are split, counted and seeded in Poly-D-Lysine (PDL) coated 96-wells (Greiner, #655946) plate at a cell density of 12,000 cells per cm^2 (4,000 cells per well) in 100 μl of Assay Medium (Low Glucose medium is used to reduce basal levels of GlcNAcylation) (Park et al. 2014 The Journal of biological chemistry 289:13519). At the day of compound test medium from assay plates was removed and replenished with 90 μl of fresh Assay Medium. 10 μl of compounds at a 10fold final concentration were added to the wells. Plates were centrifuged shortly before incubation in the cell incubator for 6 hours. DMSO concentration was set to 0.2%. Medium is discarded by applying vacuum. For staining of cells medium was removed and cells washed once with 100 μl D-PBS (Sigma, #D8537). From next step onwards unless other stated assay volume was always 50 μl and incubation was performed without agitation and at room temperature. Cells were fixed in 50 μl of a 4% paraformaldehyde (PFA, Alpha aesar, #043368) PBS solution for 15 minutes at room temperature. […] Before analysis samples were washed 2 times manually for 5 minutes in ICC base buffer.
# Imaging is performed using Perkin Elmer Phenix Opera using a water 20× objective and recording 9 fields per well. Intensity readout at 488 nm is used as a measure of O-GlcNAcylation level of total proteins in wells. To assess potential toxicity of compounds nuclei were counted using the Hoechst staining. IC50-values are calculated using parametric non-linear regression model fitting. As a maximum inhibition Thiamet G at a 200 uM concentration is present on each plate. In addition, a concentration response of Thiamet G is calculated on each plate.
# [2] = Enzymatic protocol B (2 nM OGA, 6 h), read-out: Enzymatic Emax (%)
# [3] = Enzymatic protocol B (2 nM OGA, 6 h), read-out: Enzymatic hOGA, pIC50 (converted)
# [4] = Enzymatic protocol A (10 nM OGA, 1 h), read-out: Enzymatic Emax (%)
# [5] = Enzymatic protocol A (10 nM OGA, 1 h), read-out: Enzymatic hOGA, pIC50 (converted)
Compound,"Emax [1, 2] [%]","IC50 [1, 3] [nM]",Emax (OGA) [%],EC50 (OGA) [nM],"Emax [1, 4] [%]","IC50 [1, 5] [nM]","Emax ([1]; comparative table, protocol not given, read-out: Emax (OGA inhibitory activity, comparison with 1,4-disubstituted piperidine comparator)) [%]","IC50 ([1]; comparative table, protocol not given, read-out: pIC50 (OGA inhibitory activity, comparison with 1,4-disubstituted piperidine comparator) (converted)) [nM]","OGA inhibitory activity compared with comparator ([1]; greater than the corresponding 1,4-disubstituted piperidine compound (comparator))",melting point [°C],"Enzymatic Emax (%) ([1]; Enzymatic protocol B (2 nM OGA, 6 h))"
CC(=O)Nc1ncc(CN2CCCC(c3cc4ccncc4[nH]3)C2)s1 (stereo not drawn) [Compound 11],100,74.1,103,18.2,–,–,–,–,–,–,–
"CC(=O)Nc1ncc(CN2CCC[C@H](c3cc4ncccc4[nH]3)C2)s1 (single isomer, unassigned) [Compound 7]",100,25.1,114,21.4,104,18.2,104,18.2,~1 order of magnitude,–,–
c1cnc2cc(C3CCCN(Cc4ccc5c(c4)OCCO5)C3)[nH]c2c1 (stereo not drawn) [Compound 39],–,–,90.3,3630,98.2,617,–,–,–,–,–
CC(c1ccc2c(c1)OCCO2)N1CCCC(c2cc3ncccc3[nH]2)C1 (racemic) [Compound 33],98.6,55,107,417,–,–,–,–,–,–,–
CC(=O)Nc1ncc(CN2CCCC(c3cc4cnccc4[nH]3)C2)s1 (stereo not drawn) [Compound 12],124,42.7,120,17.8,–,–,–,–,–,–,–
c1cnc2cc(C3CCCN(Cc4ccc5c(c4)OCCO5)C3)[nH]c2c1 (stereo not drawn) (as salt: HCl) [Compound 39],–,–,–,–,–,–,–,–,–,178.2,–
CC(c1ccc2c(c1)OCCO2)N1CCCC(c2cc3ncccc3n2C)C1 (stereo not drawn) [Compound 40],102,61.7,75.1,955,–,–,–,–,–,–,–
"CC(c1ccc2c(c1)OCO2)N1CCCC(c2cc3ncccc3[nH]2)C1 (single isomer, unassigned) [Compound 31]",–,26.9,95.8,195,–,–,–,–,–,–,100.4
"CC(=O)Nc1ncc(S(=O)(=O)N2CCCC(c3cc4ncccc4[nH]3)C2)s1 (single isomer, unassigned) [Compound 4]",99.4,186,44.3,> 10000,99.7,178,–,–,–,–,–
"CC(=O)Nc1ncc(CN2CCCC(c3cc4ncccc4[nH]3)C2)s1 (single isomer, unassigned) [Compound 6]",79.1,2690,66.6,3630,92.3,1660,–,–,–,–,–

# Second part, the molecule after the results:
"Emax [1, 2] [%]","IC50 [1, 3] [nM]",Emax (OGA) [%],EC50 (OGA) [nM],"Emax [1, 4] [%]","IC50 [1, 5] [nM]","Emax ([1]; comparative table, protocol not given, read-out: Emax (OGA inhibitory activity, comparison with 1,4-disubstituted piperidine comparator)) [%]","IC50 ([1]; comparative table, protocol not given, read-out: pIC50 (OGA inhibitory activity, comparison with 1,4-disubstituted piperidine comparator) (converted)) [nM]","OGA inhibitory activity compared with comparator ([1]; greater than the corresponding 1,4-disubstituted piperidine compound (comparator))",melting point [°C],"Enzymatic Emax (%) ([1]; Enzymatic protocol B (2 nM OGA, 6 h))",Compound
102,1.51,121,9.33,–,–,–,–,–,–,–,CC(=O)Nc1ncc(CN2CCC(Cc3cc4ncccc4n3C)C2)s1 (stereo not drawn) [Compound 25]
100,105,113,148,101,112,–,–,–,–,–,CC(=O)Nc1ncc(CN2CCCC(c3cc4cccnc4[nH]3)C2)s1 (stereo not drawn) [Compound 8]
99.7,1.17,–,–,–,–,–,–,–,190.09,–,CC(=O)Nc1ncc(CN2CC[C@H](Cc3cc4ncccc4n3C)C2)s1 [Compound 59]
100,1.51,–,–,–,–,–,–,–,195.06,–,CC(=O)Nc1ncc(CN2CCC(Cc3cc4cnccc4n3C)C2)s1 (stereo not drawn) [Compound 61]
101,2.4,118,< 4.57,–,–,–,–,–,–,–,CC(=O)Nc1ncc(CN2CCCC(Cc3cc4ncccc4n3C)C2)s1 (stereo not drawn) [Compound 26]
102,22.4,114,20.9,101,41.7,–,–,–,–,–,CC(=O)Nc1ncc(CN2CC[C@@H](C)[C@H](c3cc4ncccc4[nH]3)C2)s1 (racemic) [Compound 22]
99.2,9.33,–,–,–,–,–,–,–,153.79,–,CC(=O)Nc1ncc(CN2CCC(Cc3cc4cccnc4n3C)C2)s1 (stereo not drawn) [Compound 60]
–,–,101,2630,101,302,–,–,–,–,–,CC(=O)Nc1ncc(CN2CCCC(c3nc4cccnc4n3C)C2)s1 (stereo not drawn) [Compound 21]
99.8,2.14,98,7.94,–,–,–,–,–,–,–,CC(=O)Nc1ncc(CN2CCC(Cc3cc4ncccc4[nH]3)C2)s1 (stereo not drawn) [Compound 24]
–,–,95.6,2630,98,155,–,–,–,–,–,CC(=O)Nc1ncc(CN2CCCC(c3nc4ncccc4n3C)C2)s1 (stereo not drawn) [Compound 20]
